Our source for the IC50 values is patent US9227967B2, “Inhibitor compounds of semicarbazide-sensitive amine oxidases” (Proximagen Limited, priority 2010, dated 2016).

In this assay the target is T1, human SSAO (Homo sapiens, UniProt Q16853).
T1 construct: made in house
T1 sequence (Q16853 29-763 limits assumed): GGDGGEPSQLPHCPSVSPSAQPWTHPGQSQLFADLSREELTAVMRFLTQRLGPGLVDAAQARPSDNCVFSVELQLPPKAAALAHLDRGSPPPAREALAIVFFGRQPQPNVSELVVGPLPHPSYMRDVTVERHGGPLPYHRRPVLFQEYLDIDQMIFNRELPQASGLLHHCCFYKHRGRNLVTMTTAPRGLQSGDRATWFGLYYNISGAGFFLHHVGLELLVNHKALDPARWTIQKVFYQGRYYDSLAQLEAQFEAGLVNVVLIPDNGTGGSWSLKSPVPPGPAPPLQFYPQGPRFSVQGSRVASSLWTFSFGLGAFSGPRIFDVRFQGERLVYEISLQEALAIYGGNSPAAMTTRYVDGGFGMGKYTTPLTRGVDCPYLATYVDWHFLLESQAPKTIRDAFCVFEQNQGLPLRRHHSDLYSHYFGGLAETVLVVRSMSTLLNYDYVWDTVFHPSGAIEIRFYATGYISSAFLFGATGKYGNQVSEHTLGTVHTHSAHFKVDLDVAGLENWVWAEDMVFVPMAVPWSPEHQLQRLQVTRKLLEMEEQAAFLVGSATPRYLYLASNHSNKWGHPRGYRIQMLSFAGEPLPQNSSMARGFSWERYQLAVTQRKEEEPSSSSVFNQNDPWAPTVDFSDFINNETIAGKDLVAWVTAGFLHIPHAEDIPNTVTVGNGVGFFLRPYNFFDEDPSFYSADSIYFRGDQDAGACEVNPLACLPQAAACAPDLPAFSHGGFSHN
Description: SSAO enzyme inhibition assay (benzylamine substrate; HRP-coupled hydrogen peroxide detection or 14C-benzaldehyde detection). Conditions: purified recombinantly expressed human SSAO, benzylamine as substrate, r.t.; read-out: SSAO inhibitory activity IC50. The format is biochemical. The protocol:
All primary assays were performed at r.t. with purified recombinantly expressed human SSAO. Enzyme was prepared essentially as described in Öhman et al. (Protein Expression and Purification 46 (2006) 321-331). In addition, secondary- and selectivity assays were performed using SSAO prepared from various tissues or purified rat recombinant SSAO. The enzyme activity was assayed with benzylamine as substrate by measuring either benzaldehyde production, using ^14C-labeled substrate, or by utilizing the production of hydrogen peroxide in a horseradish peroxidise (HRP) coupled reaction. Briefly, test compounds were dissolved in dimethyl sulfoxide (DMSO) to a concentration of 10 mM. Dose-response measurements were assayed by either creating 1:10 serial dilutions in DMSO to produce a 7 point curve or by making 1:3 serial dilutions in DMSO to produce 11 point curves. The top concentrations were adjusted depending on the potency of the compounds and subsequent dilution in reaction buffer yielded a final DMSO concentration ≦2%.
In a horseradish peroxidise (HRP) coupled reaction, hydrogen peroxide oxidation of 10-acetyl-3,7-dihydroxyphenoxazine produced resorufin, which is a highly fluorescent compound (Zhout and Panchuk-Voloshina. Analytical Biochemistry 253 (1997) 169-174; Amplex® Red Hydrogen Peroxide/peroxidise Assay kit, Invitrogen A22188). Enzyme and compounds in 50 mM sodium phosphate, pH 7.4 were set to pre-incubate in flat-bottomed microtiter plates for approximately 15 minutes before initiating the reaction by addition of a mixture of HRP, benzylamine and Amplex reagent. Benzylamine concentration was fixed at a concentration corresponding to the Michaelis constant, determined using standard procedures. Fluorescence intensity was then measured at several time points during 1-2 hours, exciting at 544 nm n and reading the emission at 590 nm. For the human SSAO assay final concentrations of the reagents in the assay wells were: SSAO enzyme 1 μg/ml, benzylamine 100 μM, Amplex reagent 20 μM, HRP 0.1 U/mL and varying concentrations of test compound. The inhibition was measured as % decrease of the signal compared to a control without inhibitor (only diluted DMSO). The background signal from a sample containing no SSAO enzyme was subtracted from all data points. Data was fitted to a four parameter logistic model and IC50 values were calculated using the GraphPad Prism 4 or XLfit 4 programs.
SSAO activity was assayed using 14C-labeled benzylamine and analysed by measuring radioactive benzaldehyde. In a white 96-well optiplate (Packard), 20 μL of diluted test compound was pre-incubated at r.t. with 20 μL SSAO enzyme for approximately 15 minutes with continuous agitation. All dilutions were made with PBS. The reaction was initiated by adding 20 μL of the benzylamine substrate solution containing [7-14C] Benzylamine hydrochloride (CFA589, GE Healthcare). The plate was incubated for 1 hour as above after which the reaction was stopped by acidification (10 μL 1 M HCl). Then 90 μL Micro Scint-E solution (Perkin-Elmer) was added to each well and the plate was continuously mixed for 15 minutes. Phase separation occurred instantly and activity was read in a Topcount scintillation counter (Perkin-Elmer). In the final reaction well, human recombinant SSAO concentration was 10 μg/ml. In order to optimize sensitivity, the substrate concentration was decreased as compared to the HRP coupled assay in order to get a higher fraction of radioactive product. In the human SSAO assay, benzylamine concentration was 40 μM (0.2 μCi/mL). Data was analysed as above.

The structures appear in SMILES notation. Where a name gives a salt, the structure may show the parent alone.

What is called IC50 is the concentration that gives 50% inhibition. With `Clc1ccc(-c2cn(C3CCOCC3)c3ccncc23)cc1` [Compound 4, 3-(4-Chlorophenyl)-1-(oxan-4-yl)-1H-pyrrolo[3,2-c]pyridine], the IC50 was 100 to 500 nM.
With `Cc1ccc(-n2nc(N3CCOCC3C(N)=O)c3ccncc32)cc1` (stereo not drawn) [Compound 77, 4-[1-(4-Methylphenyl)-1H-pyrazolo[3,4-c]pyridin-3-yl]morpholine-3-carboxamide], the IC50 fell in the range of 500 to 2500 nM.
The figure for `COC1CCN(c2nn(-c3ccc(C)cc3)c3cnccc23)C1` (stereo not drawn) [Compound 50, 3-Methoxy-1-[1-(4-methylphenyl)-1H-pyrazolo[3,4-c]pyridin-3-yl]pyrrolidine] is < 100 nM; for `Oc1cncc2c1c(C1CCOCC1)nn2-c1ccc(Cl)cc1` [Compound 95, 1-(4-Chlorophenyl)-3-(oxan-4-yl)-1H-pyrazolo[3,4-c]pyridin-4-ol] it is 100 to 500 nM; for `Clc1ccc(-n2nc(C3CCOCC3)c3ccncc32)cc1` [Compound 80, 1-(4-Chlorophenyl)-3-(oxan-4-yl)-1H-pyrazolo[3,4-c]pyridine] it is 100 to 500 nM.
As for `CC(C)(C)OC(=O)N1CCN(Cc2cn(-c3ccc(Cl)cc3)c3cnccc23)CC1` [Compound 25], the IC50 lay within 500 to 2500 nM.
The figure for `Cc1ccc(-n2nc(N3CCOCC3)c3ccncc32)c(F)c1` [Compound 58, 4-[1-(2-Fluoro-4-methylphenyl)-1H-pyrazolo[3,4-c]pyridin-3-yl]morpholine] is < 100 nM.
The figure for `Clc1ccc(-n2cc(C3=CCNCC3)c3ccncc32)cc1` [Compound 8, 4-[1-(4-Chlorophenyl)-1H-pyrrolo[2,3-c]pyridin-3-yl]-hydrochloride] is 100 to 500 nM; for `Clc1ccc(-n2nc(N3CCN(Cc4cc[nH]n4)CC3)c3ccncc32)cc1` [Compound 75, 1-[1-(4-Chlorophenyl)-1H-pyrazolo[3,4-c]pyridin-3-yl]-4-(1H-pyrazol-3-ylmethyl)piperazine] it is 100 to 500 nM.
Consider `CN(C)C(=O)N1CCC(c2nn(-c3ccc(Cl)cc3)c3cnccc23)CC1` [Compound 91, 4-[1-(4-Chlorophenyl)-1H-pyrazolo[3,4-c]pyridin-3-yl]-N,N-dimethylpiperidine-1-carboxamide], for which the IC50 lay in the range of 100 to 500 nM.
The figure for `OC1CCN(c2nn(-c3ccc(Cl)cc3)c3cnccc23)C1` (stereo not drawn) [Compound 49, 1-[1-(4-Chlorophenyl)-1H-pyrazolo[3,4-c]pyridin-3-yl]pyrrolidin-3-ol] is < 100 nM; for `CC(C)(C)OC(=O)N1CCC(n2cc(-c3ccc(Cl)cc3)c3cnccc32)CC1` [Compound 2, tert-Butyl 4-[3-(4-chlorophenyl)-1H-pyrrolo[3,2-c]pyridin-1-yl]piperidine-1-carboxylate] it is 500 to 2500 nM.
With `CCCCN1CCC(c2nn(-c3ccc(Cl)cc3)c3cnccc23)CC1` [Compound 90, 1-Butyl-4-[1-(4-chlorophenyl)-1H-pyrazolo[3,4-c]pyridin-3-yl]piperidine], the IC50 lay in the range of 500 to 2500 nM.
The figure for `O=C(CO)N1CCC(c2cn(-c3ccc(Cl)cc3)c3cnccc23)CC1` [Compound 15, 1-{4-[1-(4-Chlorophenyl)-1H-pyrrolo[2,3-c]pyridine-3-yl]piperidin-1-yl}-2-hydroxyethan-1-one] is < 100 nM.
Turning to `CCOC(=O)N1CCC(c2nn(-c3ccc(Cl)cc3)c3cnccc23)CC1` [Compound 92, Ethyl 4-[1-(4-chlorophenyl)-1H-pyrazolo[3,4-c]pyridin-3-yl]piperidine-1-carboxylate], the IC50 was 100 to 500 nM.
The figure for `Clc1ccc(-n2nc(N3CCCCC3)c3ccncc32)cc1` [Compound 51, 1-[1-(4-Chlorophenyl)-1H-pyrazolo[3,4-c]pyridin-3-yl]piperidine] is 500 to 2500 nM; for `Clc1ccc(-n2nc(N3CCOCC3)c3ccncc32)cc1` [Compound 56, 4-[1-(4-Chlorophenyl)-1H-pyrazolo[3,4-c]pyridin-3-yl]morpholine] it is < 100 nM.
The figure for `Clc1ccc(-n2cc(C3CCNCC3)c3ccncc32)cc1` [Compound 10, 1-(4-Chlorophenyl)-3-piperidin-4-yl-1H-pyrrolo[2,3-c]pyridine trifluoroacetate] is 100 to 500 nM.
